According to US8906904B2, “Alkoxy pyrazoles as soluble guanylate cyclase activators” (Boehringer Ingelheim International GmbH, priority 2012, dated 2014):

What follows are molecules tested against T1, human soluble guanylate cyclase alpha 1 and beta 1 subunits (sGC) (Homo sapiens, UniProt Q02108+Q02153) (assay: sGC cellular activator assay (cGMP, HTRF)). Conditions: CHO cells stably expressing human sGC alpha 1/beta 1, preincubated with 40 microM ODQ; cGMP readout; assay run with and without 50% human serum, Table 2 does not say which.
T1 construct: expressed in transfected cells; host or cells: Chinese hamster ovary (CHO) cells, stably transfected
T1 sequence (Q02108 1-690): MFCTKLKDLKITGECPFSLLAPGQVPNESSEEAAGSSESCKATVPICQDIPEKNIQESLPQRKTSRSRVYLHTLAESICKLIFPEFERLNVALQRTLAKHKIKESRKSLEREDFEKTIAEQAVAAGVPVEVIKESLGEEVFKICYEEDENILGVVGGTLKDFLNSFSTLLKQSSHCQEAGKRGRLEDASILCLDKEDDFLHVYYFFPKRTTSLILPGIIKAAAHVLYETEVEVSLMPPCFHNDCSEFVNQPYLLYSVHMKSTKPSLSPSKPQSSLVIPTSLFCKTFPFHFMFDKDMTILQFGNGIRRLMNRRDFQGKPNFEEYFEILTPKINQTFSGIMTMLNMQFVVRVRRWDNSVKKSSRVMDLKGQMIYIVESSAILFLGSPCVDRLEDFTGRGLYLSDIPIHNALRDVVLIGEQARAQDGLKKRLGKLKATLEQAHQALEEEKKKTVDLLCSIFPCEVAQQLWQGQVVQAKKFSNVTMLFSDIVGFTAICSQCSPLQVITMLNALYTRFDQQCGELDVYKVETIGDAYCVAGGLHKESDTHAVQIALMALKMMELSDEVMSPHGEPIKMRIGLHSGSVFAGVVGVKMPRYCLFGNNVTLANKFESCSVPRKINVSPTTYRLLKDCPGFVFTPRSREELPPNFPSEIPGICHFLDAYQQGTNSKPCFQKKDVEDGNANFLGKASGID
T1 sequence (Q02153 1-619): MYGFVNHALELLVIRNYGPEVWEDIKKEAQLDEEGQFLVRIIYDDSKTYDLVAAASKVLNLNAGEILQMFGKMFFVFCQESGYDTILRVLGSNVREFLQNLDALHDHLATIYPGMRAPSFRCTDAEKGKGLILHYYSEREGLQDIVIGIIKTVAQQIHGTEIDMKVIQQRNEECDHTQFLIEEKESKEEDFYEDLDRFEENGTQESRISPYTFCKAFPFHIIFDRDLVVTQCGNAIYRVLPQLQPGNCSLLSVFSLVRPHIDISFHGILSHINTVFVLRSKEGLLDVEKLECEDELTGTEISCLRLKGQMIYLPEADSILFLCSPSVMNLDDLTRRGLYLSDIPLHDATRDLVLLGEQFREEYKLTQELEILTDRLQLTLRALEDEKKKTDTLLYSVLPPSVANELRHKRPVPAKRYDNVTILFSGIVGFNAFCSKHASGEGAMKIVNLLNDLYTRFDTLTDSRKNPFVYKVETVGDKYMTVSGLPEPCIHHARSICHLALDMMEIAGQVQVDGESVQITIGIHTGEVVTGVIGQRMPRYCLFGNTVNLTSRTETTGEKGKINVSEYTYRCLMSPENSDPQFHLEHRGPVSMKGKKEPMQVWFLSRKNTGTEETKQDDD
Assay type: cell-based
Method: The sGC cellular activator assay is performed in the presence and absence of 50% human serum (HS) using Chinese hamster ovary cells that have been stably transfected to express the human soluble guanylate cyclase alpha 1 and beta 1 subunits (sGC). Cells are preincubated with 40 microM 1H-[1,2,4]oxadiazolo[4,3-a]quinoxalin-1-one (ODQ), an sGC inhibitor, for one h in buffer containing 0.1% bovine serum albumin and 3-isobutyl-1-methylxanthine (IBMX). Concentration response curves are prepared for test compounds in DMSO. An intermediate dilution of the compounds is performed in either buffer containing IBMX or type AB HS containing IBMX. Diluted compounds are added to cells and they are incubated at room temperature for thirty min. cGMP is measured using a CisBio homogeneous time resolved fluorescence kit and the EC50 is calculated for each compound.
Representative compounds of the present invention were tested for activity the above assay. Preferred compounds have an EC50 of <1,000 nM in the above assay and more preferred compounds have an EC50<200 nM.

| EC50 [nM] | SMILES |
| --- | --- |
| 14 | Cc1cc(COc2c(C)cccc2-c2cccc(-n3ncc(C(=O)O)c3OC(C)C)n2)cc2c1CN(C1CCOCC1)CC2 [Compound 161] |
| 110 | COc1c(C(=O)O)cnn1-c1cccc(-c2cccc(C)c2OCc2ccc3c(c2)CCN([C@H]2CC[C@]4(CCCO4)CC2)C3)n1 [Compound 102] |
| 12 | COc1c(C(=O)O)cnn1-c1cccc(-c2cccc(C)c2OCc2cc(C)c3c(c2C)CCN(C2CCOCC2)C3)n1 [Compound 120] |
| 99 | Cc1cccc(-c2cccc(-n3ncc(C(=O)O)c3OC(C)C)n2)c1OCc1ccc2c(c1)CCN([C@H]1CCOC1)C2 [Compound 111] |
| 35 | COc1c(C(=O)O)cnn1-c1cccc(-c2cccc(C)c2OCc2ccc3c(c2F)CCN(C2COC2)C3)n1 [Compound 177] |
| 17 | CCOc1c(C(=O)O)cnn1-c1cccc(-c2cccc(C)c2OCc2ccc3c(c2C)CCN([C@H]2CCCOC2)C3)n1 [Compound 129] |
| 30 | COc1c(C(=O)O)cnn1-c1cccc(-c2cccc(C)c2OCc2ccc3c(c2C)CCN(C2CCOCC2)C3=O)n1 [Compound 167, 5-Methoxy-1-(6-{3-methyl-2-[5-methyl-1-oxo-2-(tetrahydro-pyran-4-yl)-1,2,3,4-tetrahydro-isoquinolin-6-ylmethoxy]-phenyl}-pyridin-2-yl)-1H-pyrazole-4-carboxylic acid] |
| 28 | CCOc1c(C(=O)O)cnn1-c1cccc(-c2cccc(C)c2OCc2ccc3c(c2C)CCN(C[C@H]2COCCO2)C3)n1 [Compound 170] |
| 27 | CCOc1c(C(=O)O)cnn1-c1cccc(-c2cccc(C)c2OCc2ccc3c(c2C)CCN([C@H]2CCOC2)C3)n1 [Compound 125] |
| 16 | COc1c(C(=O)O)cnn1-c1cccc(-c2cccc(C)c2OCc2ccc3c(c2)C(C)(C)CN(C2COC2)C3)n1 [Compound 10] |
| 32 | COc1c(C(=O)O)cnn1-c1cccc(-c2cccc(Cl)c2OCc2ccc3c(c2)CCN(C2COC2)C3)n1 [Compound 7] |
| 23 | CCOc1c(C(=O)O)cnn1-c1cccc(-c2cccc(C)c2OCc2ccc3c(c2C)CCN(C2CCOCC2)CC3)n1 [Compound 162] |

More lines, now with the values behind:

| SMILES | EC50 [nM] |
| --- | --- |
| COc1c(C(=O)O)cnn1-c1cccc(-c2cccc(C)c2OCc2ccc3c(c2C)CCN(S(C)(=O)=O)C3)n1 [Compound 160] | 110 |
| COc1c(C(=O)O)cnn1-c1cccc(-c2cccc(C)c2OCc2ccc3c(c2)CCN(CC(C)(C)C)C3)n1 [Compound 14] | 18 |
| CCOc1c(C(=O)O)cnn1-c1cccc(-c2cccc(C)c2OCc2ccc3c(c2C)CCN(CC2CCOC(C)(C)C2)C3)n1 (stereo not shown) [Compound 163] | 55 |
| COc1c(C(=O)O)cnn1-c1cccc(-c2cccc(C)c2OCc2ccc3c(c2C)CCN([C@@H]2CCOC2)C3)n1 [Compound 106] | 27 |
| COc1c(C(=O)O)cnn1-c1cccc(-c2ccc(C)cc2OCc2ccc3c(c2)CCN(C2CCOCC2)C3)n1 [Compound 98] | 270 |
| COc1c(C(=O)O)cnn1-c1cccc(-c2cccc(C)c2OCc2cc3c(cc2C)CN(C2CCOCC2)C3)n1 [Compound 143] | 160 |
| Cc1cccc(-c2cccc(-n3ncc(C(=O)O)c3OCC(C)C)n2)c1OCc1ccc2c(c1C)CCN(C1CCOCC1)C2 [Compound 134] | 46 |
| CCCOc1c(C(=O)O)cnn1-c1cccc(-c2cccc(C)c2OCc2ccc3c(c2C)CCN(C2CCOCC2)C3)n1 [Compound 133] | 27 |
| COc1c(C(=O)O)cnn1-c1cccc(-c2ccc(C)cc2OCc2ccc3c(c2C)CCN(C2CCOCC2)C3)n1 [Compound 99] | 160 |
| CCOc1c(C(=O)O)cnn1-c1cccc(-c2cccc(C)c2OCc2cc(C)c3c(c2)CN(C2CCOCC2)C3)n1 [Compound 118] | 39 |
| CCOc1c(C(=O)O)cnn1-c1cccc(-c2cccc(C)c2OCc2ccc3c(c2C)CCN(CC2CCCOC2)C3)n1 (stereo not shown) [Compound 146] | 23 |
| Cc1cccc(-c2cccc(-n3ncc(C(=O)O)c3OC(C)C)n2)c1OCc1ccc2c(c1C)CCN([C@H]1CCCOC1)C2 [Compound 117] | 29 |
| CC[C@H](C)Oc1c(C(=O)O)cnn1-c1cccc(-c2cccc(C)c2OCc2ccc3c(c2C)CCN(C2CCOC2)C3)n1 (stereo partly shown) [Compound 137] | 89 |
| CCOc1c(C(=O)O)cnn1-c1cccc(-c2cccc(C)c2OCc2cc3c(c(C(F)(F)F)c2)CN(C2CCOCC2)CC3)n1 [Compound 157] | 25 |
| COc1c(C(=O)O)cnn1-c1cccc(-c2cccc(C)c2OCc2ccc3c(c2C(F)(F)F)CCN(C2CCOCC2)C3)n1 [Compound 166] | 6.6 |
| COc1c(C(=O)O)cnn1-c1cccc(-c2cccc(C)c2OCc2ccc3c(c2C)CCN(C2COC2)CC3)n1 [Compound 176] | 9.7 |
| COc1c(C(=O)O)cnn1-c1cccc(-c2cccc(C)c2OCc2ccc3c(c2C)CCN([C@H]2CCOC2)C3)n1 [Compound 105] | 17 |
| COc1c(C(=O)O)cnn1-c1cccc(-c2cccc(C)c2OCc2cc(C)c3c(c2C)CCN(C2COC2)C3)n1 [Compound 178] | 14 |
| COc1c(C(=O)O)cnn1-c1cccc(-c2cccc(C)c2OCc2ccc3c(c2C)CCN(C[C@H]2COCCO2)C3)n1 [Compound 142] | 62 |
| COc1c(C(=O)O)cnn1-c1cccc(-c2cccc(C)c2OCc2cc3c(c(C(F)(F)F)c2)CN(C2CCOCC2)CC3)n1 [Compound 158] | 30 |
| CCOc1c(C(=O)O)cnn1-c1cccc(-c2cccc(C)c2OCc2ccc3c(c2)CCN(CC2CC(=O)N(C)C2)C3)n1 (stereo not shown) [Compound 97, 5-ethoxy-1-(6-{3-methyl-2-[2-(1-methyl-5-oxo-pyrrolidin-3-ylmethyl)-1,2,3,4-tetrahydro-isoquinolin-6-ylmethoxy]-phenyl}-pyridin-2-yl)-1H-pyrazole-4-carboxylic acid] | 67 |
| CCOc1c(C(=O)O)cnn1-c1cccc(-c2cccc(C)c2OCc2ccc3c(c2F)CCN(C2CCOCC2)C3)n1 [Compound 159] | 53 |
| CCOc1c(C(=O)O)cnn1-c1cccc(-c2cccc(C)c2OCc2ccc3c(c2CC)CCN(C2CCOCC2)C3)n1 [Compound 154] | 28 |
| CCOc1c(C(=O)O)cnn1-c1cccc(-c2cccc(C)c2OCc2ccc3c(c2C)CN(C2CCOCC2)C3)n1 [Compound 119] | 57 |
| COc1c(C(=O)O)cnn1-c1cccc(-c2cccc(C(F)(F)F)c2OCc2ccc3c(c2)CCN(C2COC2)C3)n1 [Compound 9] | 59 |
